Like-named read-outs stand apart in the source and are kept apart here.
Legend:
[1] = test system: clinical P. aeruginosa isolates; test: microbe, parasite or virus in culture; settings: Pseudomonas aeruginosa, 18 h
How it was run: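 MIC is the lowest drug concentration showing no visible growth after 18 h at 37 °C. Two-fold dilutions in MHB were combined with an equal volume of bacterial suspension (about 1 × 10^6 CFU/mL), following CLSI broth microdilution, in triplicate.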

P. aeruginosa PAK = test: microbe, parasite or virus in culture; design: MICa: MIC of the antibiotic / MICac: MIC of the antibiotic in the combination: unit not given beside the values; settings: for FICI: antibiotic + D-11 (MICb/MICbc 64/4); for MICac: MIC of the antibiotic in the combination: with D-11 at MICbc 4
How it was run: (§1)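 After 18 h at 37 °C, the lowest concentration showing no visible growth was read as the MIC. Drugs were serially diluted two-fold in MHB and combined with an equal volume of inoculum (~1 × 10^6 CFU/mL), following CLSI broth microdilution; run in triplicate.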

P. aeruginosa NR-31041 = test: microbe, parasite or virus in culture; design: MICa: MIC of the antibiotic / MICac: MIC of the antibiotic in the combination: unit not given beside the values; settings: for FICI: antibiotic + D-11 (MICb/MICbc 64/4); for MICac: MIC of the antibiotic in the combination: with D-11 at MICbc 4
How it was run: as §1

P. aeruginosa NR-31040 = test: microbe, parasite or virus in culture; design: MICa: MIC of the antibiotic / MICac: MIC of the antibiotic in the combination: unit not given beside the values; settings: strain NR-31040; for FICI: antibiotic + D-11 (MICb/MICbc 128/4); for MICa: MIC of the antibiotic: antibiotic alone; for MICa: MIC of the antibiotic / MICac: MIC of the antibiotic in the combination: unit not given; for MICac: MIC of the antibiotic in the combination: with D-11 at MICbc 4
How it was run: as §1

P. aeruginosa PA14 = test: microbe, parasite or virus in culture; design: MICa: MIC of the antibiotic / MICac: MIC of the antibiotic in the combination: unit not given beside the values; settings: for FICI: antibiotic + D-11 (MICb/MICbc 128/4); for MICac: MIC of the antibiotic in the combination: with D-11 at MICbc 4
How it was run: as §1

P. aeruginosa ATCC27853 = test: microbe, parasite or virus in culture; design: MICa: MIC of the antibiotic / MICac: MIC of the antibiotic in the combination: unit not given beside the values; settings: for FICI: antibiotic + D-11 (MICb/MICbc 32/4)
How it was run: as §1

P. aeruginosa AUMC-Pa-6 = test: microbe, parasite or virus in culture; settings: strain AUMC-Pa-6; for FICI: antibiotic + D-11 (MICb/MICbc 64/4); for MICa: MIC of the antibiotic: antibiotic alone; for MICa: MIC of the antibiotic / MICac: MIC of the antibiotic in the combination: unit not given; for MICac: MIC of the antibiotic in the combination: with D-11 at MICbc 4
How it was run: as §1

P. aeruginosa AUMC-Pa-3 = test: microbe, parasite or virus in culture; settings: for FICI: antibiotic + D-11 (MICb/MICbc 128/4); for MICac: MIC of the antibiotic in the combination: with D-11 at MICbc 4
How it was run: as §1

P. aeruginosa PAO1 = test: microbe, parasite or virus in culture; settings: for FICI / MICac: the MIC for the antibiotic in the combination / MICa: the MIC of antibiotics: S3 Table; for MICa: the MIC of antibiotics: antibiotic alone
How it was run: as §1

P. aeruginosa AUMC-Pa-5 = test: microbe, parasite or virus in culture; settings: strain AUMC-Pa-5; for FICI: antibiotic + D-11 (MICb/MICbc 64/4); for MICa: MIC of the antibiotic: antibiotic alone; for MICa: MIC of the antibiotic / MICac: MIC of the antibiotic in the combination: unit not given; for MICac: MIC of the antibiotic in the combination: with D-11 at MICbc 4
How it was run: as §1

P. aeruginosa AUMC-Pa-4 = test: microbe, parasite or virus in culture; settings: for FICI: antibiotic + D-11 (MICb/MICbc 128/4); for MICac: MIC of the antibiotic in the combination: with D-11 at MICbc 4
How it was run: as §1

P. aeruginosa AUMC-Pa-2 = settings: strain AUMC-Pa-2; antibiotic + D-11 (MICb/MICbc 64/4)
How it was run: as §1

P. aeruginosa AUMC-Pa-1 = settings: strain AUMC-Pa-1; antibiotic + D-11 (MICb/MICbc 128/4)
How it was run: as §1

P. aeruginosa HM-214 = settings: strain HM-214; antibiotic + D-11 (MICb/MICbc 128/4)
How it was run: as §1

[2] = strain NR-31041, unit not given
[3] = strain AUMC-Pa-3, unit not given
[4] = strain AUMC-Pa-4, unit not given

O=C(N[C@H](CO)[C@H](O)c1ccc([N+](=O)[O-])cc1)C(Cl)Cl [Chloramphenicol]
MIC ([1]; read-out: Antibiotic sensibility (MIC) of clinical P. aeruginosa isolate AUMC-Pa-1, strain AUMC-Pa-1, antibiotic alone): > 128 µM
MIC ([1]; read-out: Antibiotic sensibility (MIC) of clinical P. aeruginosa isolate AUMC-Pa-2, strain AUMC-Pa-2, antibiotic alone): 128 µM
MIC ([1]; read-out: Antibiotic sensibility (MIC) of clinical P. aeruginosa isolate AUMC-Pa-3, strain AUMC-Pa-3, antibiotic alone): 128 µM
MIC ([1]; read-out: Antibiotic sensibility (MIC) of clinical P. aeruginosa isolate AUMC-Pa-4, strain AUMC-Pa-4, antibiotic alone): 128 µM
MIC ([1]; read-out: Antibiotic sensibility (MIC) of clinical P. aeruginosa isolate AUMC-Pa-5, strain AUMC-Pa-5, antibiotic alone): 128 µM
MIC ([1]; read-out: Antibiotic sensibility (MIC) of clinical P. aeruginosa isolate AUMC-Pa-6, strain AUMC-Pa-6, antibiotic alone): 128 µM
MIC ([1]; read-out: Antibiotic sensibility (MIC) of clinical P. aeruginosa isolate HM-214, strain HM-214, antibiotic alone): 128 µM
MIC ([1]; read-out: Antibiotic sensibility (MIC) of clinical P. aeruginosa isolate NR-31040, strain NR-31040, antibiotic alone): 128 µM
MIC ([1]; read-out: Antibiotic sensibility (MIC) of clinical P. aeruginosa isolate NR-31041, strain NR-31041, antibiotic alone): 128 µM
FICI (P. aeruginosa PAK; strain PAK): 0.094
MICa: MIC of the antibiotic (P. aeruginosa PAK; strain PAK, antibiotic alone, unit not given): 128
MICac: MIC of the antibiotic in the combination (P. aeruginosa PAK; strain PAK, unit not given): 4
FICI (P. aeruginosa NR-31041; strain NR-31041): 0.094
MICa: MIC of the antibiotic (P. aeruginosa NR-31041; strain NR-31041, antibiotic alone, unit not given): 128
MICac: MIC of the antibiotic in the combination (P. aeruginosa NR-31041; [2]): 4
FICI (P. aeruginosa NR-31040): 0.063
MICa: MIC of the antibiotic (P. aeruginosa NR-31040): 128
MICac: MIC of the antibiotic in the combination (P. aeruginosa NR-31040): 4
FICI (P. aeruginosa PA14; strain PA14): 0.063
MICa: MIC of the antibiotic (P. aeruginosa PA14; strain PA14, antibiotic alone, unit not given): 128
MICac: MIC of the antibiotic in the combination (P. aeruginosa PA14; strain PA14, unit not given): 4
FICI (P. aeruginosa ATCC27853; strain ATCC27853): 0.141
FICI (P. aeruginosa AUMC-Pa-6): 0.094
MICa: MIC of the antibiotic (P. aeruginosa AUMC-Pa-6): 128
MICac: MIC of the antibiotic in the combination (P. aeruginosa AUMC-Pa-6): 4
FICI (P. aeruginosa AUMC-Pa-3; strain AUMC-Pa-3): 0.063
MICa: MIC of the antibiotic (P. aeruginosa AUMC-Pa-3; strain AUMC-Pa-3, antibiotic alone, unit not given): 128
MICac: MIC of the antibiotic in the combination (P. aeruginosa AUMC-Pa-3; [3]): 4
FICI (P. aeruginosa PAO1; PAO1, antibiotic + 2 μM D-11): 0.094
FICI (P. aeruginosa PAO1; PAO1, antibiotic + 4 μM D-11): 0.156
MICac: the MIC for the antibiotic in the combination (P. aeruginosa PAO1; PAO1, with 2 μM D-11): 4 µM
MICac: the MIC for the antibiotic in the combination (P. aeruginosa PAO1; PAO1, with 4 μM D-11): 4 µM
MICa: the MIC of antibiotics (P. aeruginosa PAO1; PAO1): 128 µM
FICI (P. aeruginosa AUMC-Pa-5): 0.188
MICa: MIC of the antibiotic (P. aeruginosa AUMC-Pa-5): 128
MICac: MIC of the antibiotic in the combination (P. aeruginosa AUMC-Pa-5): 16
FICI (P. aeruginosa AUMC-Pa-4; strain AUMC-Pa-4): 0.063
MICa: MIC of the antibiotic (P. aeruginosa AUMC-Pa-4; strain AUMC-Pa-4, antibiotic alone, unit not given): 128
MICac: MIC of the antibiotic in the combination (P. aeruginosa AUMC-Pa-4; [4]): 4
FICI (P. aeruginosa AUMC-Pa-2): 0.094
FICI (P. aeruginosa AUMC-Pa-1): 0.047
FICI (P. aeruginosa HM-214): 0.063

CO[C@H]1[C@H](OC(=O)c2ccc(C)[nH]2)[C@H](O)[C@@H](Oc2ccc3c(O)c(NC(=O)c4c[nH]c(C(=O)Nc5c(O)c6ccc(O[C@H]7OC(C)(C)[C@@H](OC)[C@H](OC(=O)c8ccc(C)[nH]8)[C@@H]7O)c(C)c6oc5=O)c4C)c(=O)oc3c2C)OC1(C)C [Coumermycin A1]
MIC ([1]; read-out: Antibiotic sensibility (MIC) of clinical P. aeruginosa isolate AUMC-Pa-1): 8 µM
MIC ([1]; read-out: Antibiotic sensibility (MIC) of clinical P. aeruginosa isolate AUMC-Pa-2): 8 µM
MIC ([1]; read-out: Antibiotic sensibility (MIC) of clinical P. aeruginosa isolate AUMC-Pa-3): 8 µM
MIC ([1]; read-out: Antibiotic sensibility (MIC) of clinical P. aeruginosa isolate AUMC-Pa-4): 8 µM
MIC ([1]; read-out: Antibiotic sensibility (MIC) of clinical P. aeruginosa isolate AUMC-Pa-5): 8 µM
MIC ([1]; read-out: Antibiotic sensibility (MIC) of clinical P. aeruginosa isolate AUMC-Pa-6): 8 µM
MIC ([1]; read-out: Antibiotic sensibility (MIC) of clinical P. aeruginosa isolate HM-214): 8 µM
MIC ([1]; read-out: Antibiotic sensibility (MIC) of clinical P. aeruginosa isolate NR-31040): 8 µM
MIC ([1]; read-out: Antibiotic sensibility (MIC) of clinical P. aeruginosa isolate NR-31041): 8 µM
MIC (P. aeruginosa PAK; Pseudomonas aeruginosa, 18 h, read-out: MICa: MIC of the antibiotic): 8 µM
FICI (P. aeruginosa PAK; strain PAK): 0.125
MICac: MIC of the antibiotic in the combination (P. aeruginosa PAK; strain PAK, unit not given): 0.5
MIC (P. aeruginosa NR-31041; Pseudomonas aeruginosa, NR31041, 18 h, read-out: MICa: MIC of the antibiotic): 8 µM
FICI (P. aeruginosa NR-31041; strain NR-31041): 0.078
MICac: MIC of the antibiotic in the combination (P. aeruginosa NR-31041; [2]): 0.125
FICI (P. aeruginosa NR-31040): 0.281
MICa: MIC of the antibiotic (P. aeruginosa NR-31040): 8
MICac: MIC of the antibiotic in the combination (P. aeruginosa NR-31040): 2
MIC (P. aeruginosa PA14; Pseudomonas aeruginosa, PA14, 18 h, read-out: MICa: MIC of the antibiotic): 8 µM
FICI (P. aeruginosa PA14; strain PA14): 0.094
MICac: MIC of the antibiotic in the combination (P. aeruginosa PA14; strain PA14, unit not given): 0.5
MIC (P. aeruginosa ATCC27853; Pseudomonas aeruginosa, ATCC27853, 18 h, read-out: MICa: MIC of the antibiotic): 8 µM
FICI (P. aeruginosa ATCC27853; strain ATCC27853): 0.156
MICac: MIC of the antibiotic in the combination (P. aeruginosa ATCC27853; strain ATCC27853, with D-11 at MICbc 4, unit not given): 0.5
FICI (P. aeruginosa AUMC-Pa-6): 0.313
MICa: MIC of the antibiotic (P. aeruginosa AUMC-Pa-6): 8
MICac: MIC of the antibiotic in the combination (P. aeruginosa AUMC-Pa-6): 2
MIC (P. aeruginosa AUMC-Pa-3; Pseudomonas aeruginosa, AUMCPA3, 18 h, read-out: MICa: MIC of the antibiotic): 8 µM
FICI (P. aeruginosa AUMC-Pa-3; strain AUMC-Pa-3): 0.035
MICac: MIC of the antibiotic in the combination (P. aeruginosa AUMC-Pa-3; [3]): 0.031
reduction of the MICs (P. aeruginosa PAO1; PAO1, in the presence of 4 μM of D-11): 512 fold
MIC (P. aeruginosa PAO1; Pseudomonas aeruginosa, PAO1, 18 h, read-out: MICa: the MIC of antibiotics): 8 µM
FICI (P. aeruginosa PAO1; PAO1, antibiotic + 2 μM D-11): 0.078
MICac: the MIC for the antibiotic in the combination (P. aeruginosa PAO1; PAO1, with 2 μM D-11): 0.125 µM
MICac: the MIC for the antibiotic in the combination (P. aeruginosa PAO1; PAO1, with 4 μM D-11): 0.01562 µM
MICa: the MIC of antibiotics (P. aeruginosa PAO1; PAO1): 8 µM
FICI (P. aeruginosa AUMC-Pa-5): 0.313
MICa: MIC of the antibiotic (P. aeruginosa AUMC-Pa-5): 8
MICac: MIC of the antibiotic in the combination (P. aeruginosa AUMC-Pa-5): 2
MIC (P. aeruginosa AUMC-Pa-4; Pseudomonas aeruginosa, AUMCPA4, 18 h, read-out: MICa: MIC of the antibiotic): 8 µM
FICI (P. aeruginosa AUMC-Pa-4; strain AUMC-Pa-4): 0.094
MICac: MIC of the antibiotic in the combination (P. aeruginosa AUMC-Pa-4; [4]): 0.5
FICI (P. aeruginosa AUMC-Pa-2): 0.094
FICI (P. aeruginosa AUMC-Pa-1): 0.039
FICI (P. aeruginosa HM-214): 0.281
